The values that follow are results of earlier work, collected in US20040191328A1, “Combination of gallium compounds with nonchemotherapeutic anticancer agents in the treatment of neoplasia” (priority 2002, published 2004).

Structures are written as SMILES. Some results are limits rather than exact numbers.

The conditions of series [1]: increased exposure secondary to decreased clearance.

Consider `O=[N+]([O-])[O-].O=[N+]([O-])[O-].O=[N+]([O-])[O-].[Ga+3]` [Gallium nitrate, gallium nitrate], for which the “concentration at which growth inhibition occurs” value in the series with cells in vitro (chronic exposure, low concentrations) was 10 µg/mL. Further, the “concentration inducing both cellular cytotoxicity and inhibition of growth” value in the series with cells in vitro (exposure of duration longer than 24 hours) was more than 50 µg/mL.

In the case of `C/C=C/C[C@@H](C)C(=O)[C@H]1C(=O)N[C@@H](C(C)C)C(=O)N(C)CC(=O)N(C)[C@@H](CC(C)C)C(=O)N[C@@H](C(C)C)C(=O)N(C)[C@@H](CC(C)C)C(=O)N[C@@H](C)C(=O)N[C@H](C)C(=O)N(C)[C@@H](CC(C)C)C(=O)N(C)[C@@H](CC(C)C)C(=O)N(C)[C@@H](C(C)C)C(=O)N1C` [PSC 833], the “dose reduction of paclitaxel and doxorubicin needed to achieve equivalent myelosuppression” value in series [1] is 2 fold.
